Where “and” joins values, the source holds several entries; their conditions need not be identical. Equal values may be shown once. Read-outs that look alike come from different tables or passages of the source.
What was measured:
[1] = target: T1, FGF14:Nav1.6 C-tail complex (Homo sapiens, UniProt Q92915+Q9UQD0); assay: Split-luciferase complementation assay (LCA) in Clone V double stable HEK293 cells; assay type: cell-based; conditions: for Split Luciferase Assay Z-score Set 1 / Split Luciferase Assay Z-score Set 2: normalized to on-plate 0.3% DMSO controls
T1 construct: polymerase chain reaction (PCR) amplification of the FGF14 open reading frame (nt 1–855); C-terminal fragment of Nav1.6 (amino acids 1763–1976) fused with CD4ΔC-tail (amino acids 1–395); expressed in transfected cells

[2] = target: full-length P. pyralis luciferase (Photinus pyralis, UniProt P08659, K549A/L550V/N119G/N50D/S548I); assay type: cell-based; conditions: CC_NCI screening, normalized to on-plate 0.3% DMSO controls; for Luciferase Assay % Lum: full-length luciferase counter-screen luminescence; for Luciferase Assay Z-score: full-length luciferase counter-screen
Clone V cells = assay: CellTiter Blue (CTB) cell viability counter-screen; conditions: CC_NCI screening, normalized to on-plate 0.3% DMSO controls; for Toxicity Assay % Fluor: CTB cell viability fluorescence; for Toxicity Assay Z-score: CTB cell viability
[3] = CC_NCI screening, LCA, biological replicate Set 1
[4] = CC_NCI screening, LCA, biological replicate Set 2
[5] = CC_NCI screening, LCA luminescence, biological replicate Set 1, normalized to on-plate 0.3% DMSO controls (n=16 per plate)
[6] = CC_NCI screening, LCA luminescence, biological replicate Set 2, normalized to on-plate 0.3% DMSO controls (n=16 per plate)
[7] = CC_NCI screening, average of Set 1 and Set 2, normalized to 0.3% DMSO controls

Sequence of full-length P. pyralis luciferase (P08659 whole entry N50D/N119G/S548I/K549A/L550V, looked up): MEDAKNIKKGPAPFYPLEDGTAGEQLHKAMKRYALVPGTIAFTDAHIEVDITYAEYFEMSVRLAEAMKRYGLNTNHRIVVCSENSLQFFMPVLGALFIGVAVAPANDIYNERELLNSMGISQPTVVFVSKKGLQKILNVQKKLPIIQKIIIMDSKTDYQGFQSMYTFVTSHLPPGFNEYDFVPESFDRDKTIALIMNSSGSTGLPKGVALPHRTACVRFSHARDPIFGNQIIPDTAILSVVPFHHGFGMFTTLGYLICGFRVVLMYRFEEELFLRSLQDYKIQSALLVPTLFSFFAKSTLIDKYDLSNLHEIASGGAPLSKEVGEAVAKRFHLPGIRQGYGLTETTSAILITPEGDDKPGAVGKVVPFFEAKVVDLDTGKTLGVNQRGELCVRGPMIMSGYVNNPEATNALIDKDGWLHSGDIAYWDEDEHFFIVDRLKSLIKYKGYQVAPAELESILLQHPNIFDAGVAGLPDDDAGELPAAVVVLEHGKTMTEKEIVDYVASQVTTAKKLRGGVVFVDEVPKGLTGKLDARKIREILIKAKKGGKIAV
T1 sequence (Q92915 1-252 isoform Q92915-2): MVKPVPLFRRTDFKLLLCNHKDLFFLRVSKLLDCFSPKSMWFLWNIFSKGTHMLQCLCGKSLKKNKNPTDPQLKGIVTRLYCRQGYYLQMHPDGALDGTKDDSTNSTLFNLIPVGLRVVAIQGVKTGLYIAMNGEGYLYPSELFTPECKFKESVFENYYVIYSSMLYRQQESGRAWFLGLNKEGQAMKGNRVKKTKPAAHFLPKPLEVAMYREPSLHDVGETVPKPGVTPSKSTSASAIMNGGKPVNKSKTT
T1 sequence (Q9UQD0 1763-1976 limits assumed): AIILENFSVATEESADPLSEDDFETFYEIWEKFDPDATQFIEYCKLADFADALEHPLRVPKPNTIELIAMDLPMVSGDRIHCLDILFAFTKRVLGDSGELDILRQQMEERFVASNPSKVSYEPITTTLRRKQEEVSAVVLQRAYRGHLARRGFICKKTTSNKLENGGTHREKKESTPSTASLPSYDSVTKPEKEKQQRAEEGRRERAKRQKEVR

Compound | Split Luciferase Assay Z-score Set 1 [1, 3] | Split Luciferase Assay Z-score Set 2 [1, 4] | Luciferase Assay % Lum [2] | Luciferase Assay Z-score [2] | Toxicity Assay % Fluor (Clone V cells) | Toxicity Assay Z-score (Clone V cells) | Split Luciferase Assay % Lum Set 1 [1, 5] | Split Luciferase Assay %Lum Set 2 [1, 6] | Split Luciferase Assay %Lum Avg [1, 7] | further results
C=C1C[C@@H]2[C@H](CC[C@]3(C)C(=O)CC[C@@H]23)[C@@]2(C)C=CC(=O)C=C12 [Exemestane] | 0.73 | -0.26 | 90.38% | -1.23 | 91.81% | -1.14 |  |  |  | Split Luciferase Assay % Lum Set 1 [1]: 109.04%; Split Luciferase Assay %Lum Avg [1]: 102.89%; Split Luciferase Assay %Lum Set 2 [1]: 96.75%
C[C@]12CC[C@@H]3c4ccc(O)cc4C[C@@H](CCCCCCCCC[S+]([O-])CCCC(F)(F)C(F)(F)F)[C@H]3[C@@H]1CC[C@@H]2O (stereo partly drawn) [Fulvestrant] | -0.41 | -0.69 | 83.45% | -2.12 | 83.63% | -2.29 | 94.90% | 91.55% | 93.23% | 
Nc1cccc2c1CN(C1CCC(=O)NC1=O)C2=O (stereo not drawn) [Lenalidomide] | 3.63 and 0.64 | 3.63 and 2.36 | 104.96% and 92.77% |  | 84.86% and 92.38% |  | 144.91% and 107.95% | 144.60% and 129.00% | 144.76% and 118.47% | 
C[C@]12O[C@H](C[C@]1(O)CO)n1c3ccccc3c3c4c(c5c6ccccc6n2c5c31)CNC4=O [Lestaurtinib, reference compound] | -4.01 | -4.84 | 87.58% | -1.59 | 90.16% |  | 50.33% | 40.57% | 45.45% | Z-score (LCA primary screening) ([1]; 30 µM, 384-well, average of primary screening (n = 2), vs on-plate 0.3% DMSO): −4.42; dose-response behavior of repurchased compounds ([1]; 10-point dose response 0.25-50 µM, Clone V cells): purely inhibitory effects; IC50 ([1]; IC50 (µM), estimated, 8-point dose response 0.25-30 µM, n = 4 per concentration, library compounds): 1.22 µM; IMin (% Luminescence) ([1]; antagonists, Clone V cells, 384-well, normalized to DMSO): 45.45 % Luminescence; action toward the FGF14:Nav1.6 C-tail interaction ([1]; dose-dependency validation using fresh compound samples): acted as antagonists; IC50 ([1]; in-cell IC50, repurchased compounds, 10-point dose response 0.25-50 µM, n = 8 per concentration, Clone V cells, 384-well): 0.95 µM
Cc1ccc(NC(=O)c2ccc(CN3CCN(C)CC3)cc2)cc1Nc1nc(-c2cccnc2)cs1 [MASITINIB] | -7.62 | -6.78 | 52.92% | -6.03 | 86.99% | -1.82 | 5.76% | 16.64% | 11.20% | 
Cc1nc2c(O)cccc2c(=O)[nH]1 [NU 1025] |  |  |  |  |  |  |  |  |  | Split Luciferase Assay Z-score Set 1 ([1]; CC_NCI screening, biological replicate Set 1): -0.32; Split Luciferase Assay % Lum Set 1 ([1]; CC_NCI screening, biological replicate Set 1, normalized to on-plate 0.3% DMSO controls (n=16 per plate)): 95.99%; Split Luciferase Assay Z-score Set 2 ([1]; CC_NCI screening, biological replicate Set 2): -4.33; Split Luciferase Assay %Lum Set 2 ([1]; CC_NCI screening, biological replicate Set 2, normalized to on-plate 0.3% DMSO controls (n=16 per plate)): 46.81%; Split Luciferase Assay %Lum Avg ([1]; average of Set 1 and Set 2, normalized to 0.3% DMSO controls): 71.40%; Luciferase Assay % Lum (full-length luciferase counter-screen) [2]: 89.72%; Luciferase Assay Z-score (full-length luciferase counter-screen) [2]: -1.32; Toxicity Assay % Fluor (CTB cell viability fluorescence) (Clone V cells): 111.16%; Toxicity Assay Z-score (CTB cell viability) (Clone V cells): 1.56
Cc1ccc(Nc2nccc(N(C)c3ccc4c(C)n(C)nc4c3)n2)cc1S(N)(=O)=O [PAZOPANIB] | 0.03 | 1.85 | 97.40% | -0.33 | 86.91% | -1.83 | 100.34% | 122.76% | 111.55% | 
CCCCCCCCCCCCCCCCCCOP(=O)([O-])OC1CC[N+](C)(C)CC1 [PERIFOSINE] | -1.11 | -0.86 | 103.68% | 0.47 | 83.07% | -2.37 | 86.21% | 89.47% | 87.84% | 
CCCS(=O)(=O)Nc1ccc(F)c(C(=O)c2c[nH]c3ncc(-c4ccc(Cl)cc4)cc23)c1F [PLX4032] | -3.93 | -4.24 | 83.18% | -2.15 | 81.90% | -2.53 | 51.42% | 47.85% | 49.64% | 
Nc1nc2[nH]cc(CCc3ccc(C(=O)N[C@@H](CCC(=O)O)C(=O)O)cc3)c2c(=O)[nH]1 [Pemetrexed] | 0.99 | 0.84 | 94.26% | -0.73 | 94.67% | -0.74 | 112.30% | 110.27% | 111.29% | 
C#CCC(Cc1cnc2nc(N)nc(N)c2n1)c1ccc(C(=O)N[C@@H](CCC(=O)O)C(=O)O)cc1 (stereo partly drawn) [Pralatrexate] | 1.43 | 0.50 | 103.37% | 0.43 | 96.60% | -0.47 | 117.73% | 106.11% | 111.92% | 
CO[C@H]1C[C@@H]2CC[C@@H](C)[C@@](O)(O2)C(=O)C(=O)N2CCCC[C@H]2C(=O)O[C@H]([C@H](C)C[C@@H]2CC[C@@H](O)[C@H](OC)C2)CC(=O)[C@H](C)/C=C(\C)[C@@H](O)[C@@H](OC)C(=O)[C@H](C)C[C@H](C)/C=C/C=C/C=C/1C [RAPAMYCIN] | -0.32 | -2.04 | 77.09% | -2.93 | 110.83% | 1.51 | 95.99% | 74.90% | 85.45% | 
CNC(=O)c1cc(Oc2ccc(NC(=O)Nc3ccc(Cl)c(C(F)(F)F)c3)c(F)c2)ccn1 [Regorafenib] | -4.54 | -4.24 | 83.68% | -2.09 | 88.66% | -1.59 | 43.81% | 47.85% | 45.83% | 

— publication PMC6858373 (Scientific Reports, 2019)
